Measured values as given in the supplement of paper PMC10307832.

What was measured:
Experiment in all cases: relative viability (nuclei count vs DMSO), 5 days (fraction); higher = more cells survive
VE-821 + Palbociclib = compound: CS(=O)(=O)c1ccc(-c2cnc(N)c(C(=O)Nc3ccccc3)n2)cc1 [VE-821] + CC(=O)c1c(C)c2cnc(Nc3ccc(N4CCNCC4)cn3)nc2n(C2CCCC2)c1=O [Palbociclib] (partner 0.5 µM)
Method in brief: (§1)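 One day after seeding in 1536-well plates, lung cancer cell lines were dosed by pin tool. Dosing was either single-drug or a fixed anchor-drug dose plus five library-drug doses (not always all listed) in √10 steps. After 5 days, nuclei were stained in one fix-and-stain step and counted on 4× images, and relative viability is the nuclei count of treated wells over that of vehicle wells, given as the median of duplicate plates.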

Vismodegib + Phenformin = compound: CS(=O)(=O)c1ccc(C(=O)Nc2ccc(Cl)c(-c3ccccn3)c2)c(Cl)c1 [Vismodegib] + N=C(N)NC(=N)NCCc1ccccc1 [Phenformin] (partner 250 µM)
Method in brief: as §1

Ruxolitinib + Phenformin = compound: N#CC[C@H](C1CCCC1)n1cc(-c2ncnc3[nH]ccc23)cn1 [Ruxolitinib] + N=C(N)NC(=N)NCCc1ccccc1 [Phenformin] (partner 250 µM)
Method in brief: as §1

Vismodegib + Olaparib = compound: CS(=O)(=O)c1ccc(C(=O)Nc2ccc(Cl)c(-c3ccccn3)c2)c(Cl)c1 [Vismodegib] + O=C(c1cc(Cc2n[nH]c(=O)c3ccccc23)ccc1F)N1CCN(C(=O)C2CC2)CC1 [Olaparib] (partner 8 µM)
Method in brief: as §1

Row | Cell Line | relative viability (VE-821 + Palbociclib; first compound 0.08 µM) | relative viability (VE-821 + Palbociclib; first compound 0.253 µM) | relative viability (VE-821 + Palbociclib; first compound 2.53 µM) | relative viability (VE-821 + Palbociclib; first compound 8 µM) | relative viability (Vismodegib + Phenformin; first compound 0.253 µM) | relative viability (Vismodegib + Phenformin; first compound 0.8 µM) | relative viability (Vismodegib + Phenformin; first compound 2.53 µM) | relative viability (Vismodegib + Phenformin; first compound 8 µM) | relative viability (Ruxolitinib + Phenformin; first compound 0.08 µM) | relative viability (Ruxolitinib + Phenformin; first compound 0.253 µM) | relative viability (Ruxolitinib + Phenformin; first compound 0.8 µM) | relative viability (Ruxolitinib + Phenformin; first compound 2.53 µM) | relative viability (Ruxolitinib + Phenformin; first compound 8 µM) | relative viability (Vismodegib + Olaparib; first compound 0.253 µM) | relative viability (Vismodegib + Olaparib; first compound 0.8 µM) | relative viability (Vismodegib + Olaparib; first compound 2.53 µM) | relative viability (Vismodegib + Olaparib; first compound 8 µM) | relative viability (VE-821 + Palbociclib; first compound 0.8 µM) | relative viability (Vismodegib + Phenformin; first compound 0.08 µM) | relative viability (Vismodegib + Olaparib; first compound 0.08 µM)
1 | NCI-H1793 | 0.361 | 0.32 | 0.447 | 0.333 | 0.36 | 0.358 | 0.365 | 0.375 | 0.361 | 0.345 | 0.368 | 0.338 | 0.304 | 0.907 | 1.11 | 0.917 | 0.884 |  |  | 
2 | HCC-78 | 0.491 | 0.453 | 0.489 | 0.461 | 0.704 | 0.575 | 0.615 | 0.683 | 0.756 | 0.563 | 0.788 | 0.662 | 0.729 | 0.79 | 0.639 | 0.755 | 0.844 | 0.482 | 0.664 | 0.676
3 | ChaGo-K-1 | 0.95 | 0.956 | 0.905 | 0.803 | 0.448 | 0.47 | 0.459 | 0.452 | 0.45 | 0.401 | 0.414 | 0.449 | 0.446 | 0.436 | 0.455 | 0.398 | 0.405 | 0.909 | 0.523 | 0.452
4 | LCLC-97TM1 | 0.257 | 0.238 | 0.267 | 0.255 | 0.407 | 0.42 | 0.452 | 0.407 | 0.438 | 0.43 | 0.507 | 0.428 | 0.378 | 0.416 | 0.439 | 0.298 | 0.565 | 0.25 | 0.443 | 0.355
5 | NCI-H661 | 0.409 | 0.453 | 0.4 | 0.413 | 0.264 | 0.3 | 0.259 | 0.291 | 0.287 | 0.256 | 0.303 | 0.29 | 0.263 | 0.69 | 0.745 | 0.715 | 0.718 | 0.415 | 0.31 | 0.837
6 | NCI-H1944 | 0.408 | 0.325 | 0.354 | 0.236 | 0.207 | 0.205 | 0.197 | 0.216 | 0.201 | 0.202 | 0.215 | 0.164 | 0.151 | 0.404 | 0.398 |  | 0.441 | 0.256 | 0.192 | 0.414
7 | SW 1573 | 0.419 | 0.439 | 0.353 | 0.315 | 0.353 | 0.4 | 0.323 | 0.385 | 0.419 | 0.324 | 0.417 | 0.308 | 0.369 | 0.487 | 0.476 | 0.442 | 0.497 | 0.449 | 0.493 | 
8 | NCI-H1975 | 0.601 | 0.473 | 0.607 | 0.415 | 0.408 | 0.398 | 0.424 | 0.389 | 0.43 | 0.394 | 0.423 | 0.384 | 0.269 | 0.788 | 0.788 | 0.83 | 0.791 | 0.349 | 0.402 | 0.736
